Measurements from PubChem BioAssay (NCI).
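Briefly, cells in 96-well plates were exposed to five compound concentrations for 48 h, and endpoints were estimated by linear interpolation. The concentration for 50% growth inhibition is given as GI50. TGI is the concentration that stops growth completely.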

Columns and labels:
Assay in all cases: growth of human tumour cells (NCI), 48 h; in the data active = GI50 below about 0.43 µM; inactive = the rest
ACHN renal = tested on: ACHN renal
DU-145 prostate = tested on: DU-145 prostate
K-562 leukemia = tested on: K-562 leukemia
M14 melanoma = tested on: M14 melanoma
MDA-MB-231 breast = tested on: MDA-MB-231 breast
OVCAR-5 ovarian = tested on: OVCAR-5 ovarian
SK-MEL-28 melanoma = tested on: SK-MEL-28 melanoma
SNB-19 CNS = tested on: SNB-19 CNS
UACC-62 melanoma = tested on: UACC-62 melanoma
EKVX NSCLC = tested on: EKVX NSCLC

C/C(=N\Nc1cc(C)c2ccccc2n1)c1ccccn1
1660 nM: TGI (MDA-MB-231 breast)
1.96 µM: TGI (SK-MEL-28 melanoma)
5.26 µM: TGI (OVCAR-5 ovarian)
13.6 µM: TGI (SNB-19 CNS)
12.4 µM: TGI (DU-145 prostate)
0.631 µM: TGI (UACC-62 melanoma)
1.5 µM: TGI (K-562 leukemia)
active: GI50 (ACHN renal) < 37.4 nM | GI50 (DU-145 prostate) 107 nM | GI50 (K-562 leukemia) 0.0865 µM | GI50 (M14 melanoma) 0.066 µM | GI50 (MDA-MB-231 breast) < 0.0283 µM | GI50 (OVCAR-5 ovarian) 0.0706 µM | GI50 (SK-MEL-28 melanoma) 0.362 µM | GI50 (SNB-19 CNS) 0.159 µM | GI50 (UACC-62 melanoma) 110 nM
1.2 µM: TGI (M14 melanoma)
1.14 µM: TGI (ACHN renal)

CCOC(=O)Cc1ccc2c(c1O)C(=O)c1c(ccc(CC(=O)OCC)c1O)C2=O
> 100 µM: TGI (ACHN renal) | TGI (EKVX NSCLC) | TGI (K-562 leukemia) | TGI (M14 melanoma) | TGI (OVCAR-5 ovarian) | TGI (SK-MEL-28 melanoma) | TGI (SNB-19 CNS) | TGI (UACC-62 melanoma)

N#Cc1ccc2c(c1)C(=O)c1c-2n(CCCCl)c(=O)c2cc([N+](=O)[O-])ccc12
9.96 µM: TGI (UACC-62 melanoma)
> 100 µM: TGI (EKVX NSCLC) | TGI (M14 melanoma) | TGI (OVCAR-5 ovarian) | TGI (SK-MEL-28 melanoma) | TGI (SNB-19 CNS)
23.9 µM: TGI (DU-145 prostate)
> 100000 nM: TGI (MDA-MB-231 breast)
inactive: GI50 (ACHN renal) 1910 nM | GI50 (DU-145 prostate) 2740 nM | GI50 (EKVX NSCLC) 50.4 µM | GI50 (M14 melanoma) 4.64 µM | GI50 (MDA-MB-231 breast) 77.5 µM | GI50 (OVCAR-5 ovarian) 65.4 µM | GI50 (SK-MEL-28 melanoma) 41.1 µM | GI50 (SNB-19 CNS) 3.39 µM | GI50 (UACC-62 melanoma) 1130 nM
6.59 µM: TGI (ACHN renal)

COc1ccc(C(=O)C(C(=O)CC(=O)Nc2cccc(C(F)(F)F)c2)c2ccc(OC)cc2)cc1 (stereo not given)
> 100 µM: TGI (ACHN renal) | TGI (EKVX NSCLC) | TGI (K-562 leukemia) | TGI (M14 melanoma) | TGI (OVCAR-5 ovarian) | TGI (SK-MEL-28 melanoma) | TGI (SNB-19 CNS) | TGI (UACC-62 melanoma)

c1cc(N2CCCN(c3ccc(C4=NCCCN4)cc3)CC2)ccc1C1=NCCCN1
> 100 µM: TGI (ACHN renal) | TGI (DU-145 prostate) | TGI (EKVX NSCLC) | TGI (K-562 leukemia) | TGI (M14 melanoma) | TGI (OVCAR-5 ovarian) | TGI (SK-MEL-28 melanoma) | TGI (SNB-19 CNS) | TGI (UACC-62 melanoma)
inactive: GI50 (ACHN renal) > 100000 nM | GI50 (DU-145 prostate) > 100000 nM | GI50 (EKVX NSCLC) 40.6 µM | GI50 (K-562 leukemia) 88 µM | GI50 (M14 melanoma) > 100 µM | GI50 (OVCAR-5 ovarian) > 100 µM | GI50 (SK-MEL-28 melanoma) > 100 µM | GI50 (SNB-19 CNS) > 100 µM | GI50 (UACC-62 melanoma) 68100 nM
